# Biological target: T1, FmtA^Δ80 (Staphylococcus aureus, UniProt O50608)
# T1 sequence (O50608 81-397): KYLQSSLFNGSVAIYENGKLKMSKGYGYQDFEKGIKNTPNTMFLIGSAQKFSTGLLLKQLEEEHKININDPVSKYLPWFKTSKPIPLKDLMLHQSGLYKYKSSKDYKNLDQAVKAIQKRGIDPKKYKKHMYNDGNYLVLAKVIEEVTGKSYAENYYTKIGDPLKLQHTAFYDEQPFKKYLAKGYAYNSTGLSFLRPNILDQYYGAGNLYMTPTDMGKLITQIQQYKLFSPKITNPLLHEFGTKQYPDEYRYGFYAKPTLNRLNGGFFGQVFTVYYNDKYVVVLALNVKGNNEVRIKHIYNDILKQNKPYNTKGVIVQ
# Assay: isothermal titration calorimetry, one-site model
# Assay type: binding
row,SMILES,Kd [µM]
1,NC[C@@H]1O[C@H](O[C@H]2[C@@H](O)[C@H](O[C@@H]3[C@@H](O)[C@H](N)C[C@H](N)[C@H]3O[C@H]3O[C@H](CO)[C@@H](O)[C@H](O)[C@H]3N)O[C@@H]2CO)[C@H](N)[C@@H](O)[C@@H]1O [paromomycin],8.56
2,[H]/N=C(/N)N[C@H]1[C@H](O)[C@@H](O)[C@H](O[C@@H]2O[C@@H](C)[C@](O)(C=O)[C@H]2O[C@@H]2O[C@@H](CO)[C@H](O)[C@@H](O)[C@@H]2NC)[C@@H](N/C(N)=N\[H])[C@@H]1O [streptomycin],11.1
3,NC[C@H]1O[C@H](O[C@H]2[C@H](O)[C@@H](O[C@H]3O[C@H](CO)[C@@H](O)[C@H](N)[C@H]3O)[C@H](N)C[C@@H]2N)[C@H](N)C[C@@H]1O [tobramycin],25.8
4,CO/N=C1\CN(c2nc3c(cc2F)c(=O)c(C(=O)O)cn3C2CC2)CC1CN (stereo not shown) [gemifloxacin],1.7

# Source: article PMC9631409 (ACS Omega, 2022)
